Measurements from US20090047221A1 (NIPRI LIMITED, priority 2004, published 2009).
pIC50: −log10 of the molar value. Read-outs that look alike come from different tables or passages of the source.

Assays:
Assay in all cases: MTT assay (anti-proliferative activity)
Format in all cases: cell-based
[1] = tested on: SkMel28; conditions: read-out: IC 50 SkMel28
Procedure: (§1) The MTT assay was used initially to determine the anti-proliferative activity of the test compounds. In the MTT assay a yellow thiazolyl blue tetrazolium bromide salt (MTT) is reduced, in metabolically active cells, to form insoluble purple formazan crystals which are solubilised by the addition of dimethyl sulphoxide (DMSO).
(§2) Wells containing medium only were used as blanks. Following the attachment period, cells were treated with appropriate drug concentrations (20 μl added per well). 40 mg/ml stock drug solutions, in DMSO, were stored at −20° C. and on the day of drug treatment working solutions of 4 mg/ml were prepared in medium which was further diluted to achieve final drug dilution volumes of 20 μl. Initial screening was determined over a concentration range of 1-200 μg/ml. […] Cells were exposed to drug for 96 h continual exposure (37° C., 5% CO2). Following the 96 h incubation, 50 μl MTT solution (1 g MTT/500 ml PBS) was added per well and the plates were further incubated for 4 h (37° C., 5% CO2). After incubation the MTT and medium was removed from the wells and 100 μl DMSO added per well. Plates were agitated on an orbital mixer platform (Stuart Scientific) for 10 minutes. Absorbance was measured at 570 nm on a Biotrak II (Amersham Bioscience) plate reader. IC50 values were calculated comparing control and drug treated cells.

[2] = tested on: MCF-7; conditions: read-out: IC 50 MCF-7
Procedure: as §1, §2

[3] = tested on: MalMe3M; conditions: 96 h continual exposure, read-out: IC 50 MalMe3M
Procedure: as §1, §2

[4] = tested on: MDA-MB-468; conditions: read-out: IC 50 MDA-MB-468
Procedure: as §1, §2

[5] = Homo sapiens, SK-MEL-28, 96 h continual exposure
[6] = Homo sapiens, MCF7, 96 h continual exposure
[7] = Homo sapiens, MDA-MB-468, 96 h continual exposure

| Compound | pIC50 [2, 6] | pIC50 [4, 7] | pIC50 ([1]; 96 h continual exposure) | pIC50 ([2]; 96 h continual exposure) | pIC50 [3] | pIC50 ([4]; 96 h continual exposure) | pIC50 [1, 5] | pIC50 ([3]; Homo sapiens, Malme-3M) |
| --- | --- | --- | --- | --- | --- | --- | --- | --- |
| CC1Cc2c(F)ccc(O)c2C(=O)O1 (racemic) [ALM-23, Racemic Para-Fluoromellein] | – | – | < 2.99 | < 2.99 | < 2.99 | 3.33 | – | – |
| CC1Cc2c([N+](=O)[O-])cc([N+](=O)[O-])c(O)c2C(=O)O1 (racemic) [ALM-30, Racemic 2,4-dinitromellein] | 3.88 | 3.86 | – | – | – | – | 3.75 | 3.85 |
| CC1Cc2ccc(C(=O)Oc3ccccc3)c(O)c2C(=O)O1 (racemic) [ALM-37, Phenyl Ester] | – | – | 3.48 | 3.55 | 3.51 | 3.74 | – | – |
| CC1Cc2ccc(C(=O)OC3CCCCC3)c(O)c2C(=O)O1 (racemic) [ALM-38, Cyclohexyl Ester] | – | – | 3.88 | 4.01 | 3.88 | 3.88 | – | – |
| CC1Cc2ccc(C(=O)OC(C)(C)C)c(O)c2C(=O)O1 (racemic) [ALM-39, Tert-Butyl Ester] | – | – | 3.44 | 3.41 | 3.46 | 3.52 | – | – |
| CCCCCCOC(=O)c1ccc2c(c1O)C(=O)OC(C)C2 (racemic) [ALM-40, Hexyl Ester] | – | – | 3.79 | 4.19 | 3.94 | 4.37 | – | – |
| CCCCCCCCCCCCOC(=O)c1ccc2c(c1O)C(=O)OC(C)C2 (racemic) [ALM-41, Dodecyl Ester] | – | – | 3.59 | 3.72 | 3.48 | 3.78 | – | – |
| CCCCCCCC/C=C\CCCCCCCCOC(=O)c1ccc2c(c1O)C(=O)OC(C)C2 (racemic) [ALM-42, Oleyl Ester] | – | – | < 3.37 | < 3.37 | < 3.37 | 3.50 | – | – |
| CC1Cc2ccc(C(=O)NCc3ccccc3)c(O)c2C(=O)O1 (racemic) [ALM-44, Benzyl Amide] | – | – | 3.57 | 4.06 | 3.89 | 4.38 | – | – |
| CC1Cc2ccc(C(=O)n3ccnc3)c(O)c2C(=O)O1 (racemic) [ALM-46, CDI derivative] | – | – | < 3.13 | < 3.13 | < 3.13 | 4.13 | – | – |
| CC1Cc2ccc(C(=O)N3CCCC3)c(O)c2C(=O)O1 (racemic) [ALM-47, Pyrrolidine Amide] | – | – | < 3.14 | < 3.14 | < 3.14 | 3.31 | – | – |
| CNC(=O)c1ccc2c(c1O)C(=O)OC(C)C2 (racemic) [ALM-48, Methyl Amide] | – | – | 3.30 | 3.57 | 3.72 | 3.54 | – | – |
| CCCCCCN(C)C(=O)c1ccc2c(c1O)C(=O)OC(C)C2 (racemic) [ALM-50, N-Methyl-N-Hexyl Amide] | – | – | 3.85 | 4.04 | 3.96 | 4.23 | – | – |

Second part, led by results:

| pIC50 [2, 6] | pIC50 [4, 7] | Compound | pIC50 ([1]; 96 h continual exposure) | pIC50 ([2]; 96 h continual exposure) | pIC50 [3] | pIC50 ([4]; 96 h continual exposure) | pIC50 [1, 5] | pIC50 ([3]; Homo sapiens, Malme-3M) |
| --- | --- | --- | --- | --- | --- | --- | --- | --- |
| 3.58 | 3.77 | CC1Cc2c(Br)ccc(O)c2C(=O)O1 (racemic) [ALM-24] | – | – | – | – | 3.53 | 3.60 |
| 3.93 | 4.31 | CC1Cc2c(I)cc(I)c(O)c2C(=O)O1 (racemic) [ALM-27, Racemic 2,4-di-iodomellein] | – | – | – | – | 4.11 | 3.96 |
| 3.23 | 3.68 | COc1ccc(I)c2c1C(=O)OC(C)C2 (racemic) [ALM-28] | – | – | – | – | 3.55 | 3.31 |
| 3.47 | 3.47 | CC(=O)c1ccc2c(c1O)C(=O)OC(C)C2 (racemic) [ALM-29, Racemic ortho-acetylmellein] | – | – | – | – | 3.44 | 3.47 |
| < 3.05 | 3.23 | CC1Cc2ccc(C(=O)O)c(O)c2C(=O)O1 (racemic) [ALM-33, 8-Hydroxy-3-methyl-1-oxo-isochroman-7-carboxylic acid] | – | – | – | – | < 3.05 | < 3.05 |
| < 3.07 | 3.44 | COC(=O)c1ccc2c(c1O)C(=O)OC(C)C2 (racemic) [ALM-34, 8-Hydroxy-3-methyl-1-oxo-isochroman-7-carboxylic acid methyl ester] | – | – | – | – | < 3.07 | < 3.07 |
